Assay results: patent US20140343000A1 (priority 2011, published 2014)

test system: recombinant NL4-3 virus (Renilla luciferase in nef, Gag P373S; NLRluc) in MT-2 cells; test: whole plant or invertebrate; assay type: cell-based, HIV; conditions: Renilla, NL43, luciferase activity in cells infected for 4-5 days with NLRluc recombinants, serial dilutions of inhibitor; class symbols (key in Table 1); read-out: EC50
Method in brief: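 Virus from 293T transfection, titered in MT-2 by luciferase. MT-2 (RPMI, 10% HI-FBS) infected ± inhibitor serial dilutions, 4-5 d. Readout: Dual Luciferase premix (lysis:reagent:Stop & Glo 2:1:1), immediate luminescence.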

SMILES | EC50 [nM]
C=C(C)[C@@H]1CC[C@]2(NC(=O)NCCN(C)S(C)(=O)=O)CC[C@]3(C)[C@H](CC[C@@H]4[C@@]5(C)CC=C(c6ccc(C(=O)O)cc6)C(C)(C)[C@@H]5CC[C@]43C)[C@@H]12 [Example 50, 4-((1R,3aS,5aR,5bR,7aR,11aS,11bR,13aR,13bR)-5a,5b,8,8,11a-pentamethyl-3a-(3-(2-(N-methylmethylsulfonamido)ethyl)ureido)-1-(prop-1-en-2-yl)-2,3,3a,4,5,5a,5b,6,7,7a,8,11,11a,11b,12,13,13a,13b-octadecahydro-1H-cyclopenta[a]chrysen-9-yl)benzoic acid] | < 100
C=C(C)[C@@H]1CC[C@]2(NC(=O)N3CCCN(CCO)CC3)CC[C@]3(C)[C@H](CC[C@@H]4[C@@]5(C)CC=C(c6ccc(C(=O)O)cc6)C(C)(C)[C@@H]5CC[C@]43C)[C@@H]12 [Example 51, 4-((1R,3aS,5aR,5bR,7aR,11aS,11bR,13aR,13bR)-3a-(4-(2-hydroxyethyl)-1,4-diazepane-1-carboxamido)-5a,5b,8,8,11a-pentamethyl-1-(prop-1-en-2-yl)-2,3,3a,4,5,5a,5b,6,7,7a,8,11,11a,11b,12,13,13a,13b-octadecahydro-1H-cyclopenta[a]chrysen-9-yl)benzoic acid] | < 100
C=C(C)[C@@H]1CC[C@]2(NC(=O)N(CCO)CCN(C)C)CC[C@]3(C)[C@H](CC[C@@H]4[C@@]5(C)CC=C(c6ccc(C(=O)O)cc6)C(C)(C)[C@@H]5CC[C@]43C)[C@@H]12 [Example 52, 4-((1R,3aS,5aR,5bR,7aR,11aS,11bR,13aR,13bR)-3a-(3-(2-(dimethylamino)ethyl)-3-(2-hydroxyethyl)ureido)-5a,5b,8,8,11a-pentamethyl-1-(prop-1-en-2-yl)-2,3,3a,4,5,5a,5b,6,7,7a,8,11,11a,11b,12,13,13a,13b-octadecahydro-1H-cyclopenta[a]chrysen-9-yl)benzoic acid] | < 100
C=C(C)[C@@H]1CC[C@]2(NC(=O)N(CCN3CCOCC3)CC(=O)O)CC[C@]3(C)[C@H](CC[C@@H]4[C@@]5(C)CC=C(c6ccc(C(=O)O)cc6)C(C)(C)[C@@H]5CC[C@]43C)[C@@H]12 [Example 53, 4-((1R,3aS,5aR,5bR,7aR,11aS,11bR,13aR,13bR)-3a-(3-(carboxymethyl)-3-(2-morpholinoethyl)ureido)-5a,5b,8,8,11a-pentamethyl-1-(prop-1-en-2-yl)-2,3,3a,4,5,5a,5b,6,7,7a,8,11,11a,11b,12,13,13a,13b-octadecahydro-1H-cyclopenta[a]chrysen-9-yl)benzoic acid] | < 100
C=C(C)[C@@H]1CC[C@]2(NC(=O)N3CCN(C)CC3)CC[C@]3(C)[C@H](CC[C@@H]4[C@@]5(C)CC=C(c6ccc(C(=O)O)cc6)C(C)(C)[C@@H]5CC[C@]43C)[C@@H]12 [Example 54, 4-((1R,3aS,5aR,5bR,7aR,11aS,11bR,13aR,13bR)-5a,5b,8,8,11a-pentamethyl-3a-(4-methylpiperazine-1-carboxamido)-1-(prop-1-en-2-yl)-2,3,3a,4,5,5a,5b,6,7,7a,8,11,11a,11b,12,13,13a,13b-octadecahydro-1H-cyclopenta[a]chrysen-9-yl)benzoic acid] | < 100
C=C(C)[C@@H]1CC[C@]2(NC(=O)N3CCCNCC3)CC[C@]3(C)[C@H](CC[C@@H]4[C@@]5(C)CC=C(c6ccc(C(=O)O)cc6)C(C)(C)[C@@H]5CC[C@]43C)[C@@H]12 [Example 55, 4-((1R,3aS,5aR,5bR,7aR,11aS,11bR,13aR,13bR)-3a-(1,4-diazepane-1-carboxamido)-5a,5b,8,8,11a-pentamethyl-1-(prop-1-en-2-yl)-2,3,3a,4,5,5a,5b,6,7,7a,8,11,11a,11b,12,13,13a,13b-octadecahydro-1H-cyclopenta[a]chrysen-9-yl)benzoic acid] | < 100
C=C(C)[C@@H]1CC[C@]2(NC(=O)N3CCNC(=O)C3CC(=O)O)CC[C@]3(C)[C@H](CC[C@@H]4[C@@]5(C)CC=C(c6ccc(C(=O)O)cc6)C(C)(C)[C@@H]5CC[C@]43C)[C@@H]12 (stereo partly drawn) [Example 56, 4-((1R,3aS,5aR,5bR,7aR,11aS,11bR,13aR,13bR)-3a-(2-(carboxymethyl)-3-oxopiperazine-1-carboxamido)-5a,5b,8,8,11a-pentamethyl-1-(prop-1-en-2-yl)-2,3,3a,4,5,5a,5b,6,7,7a,8,11,11a,11b,12,13,13a,13b-octadecahydro-1H-cyclopenta[a]chrysen-9-yl)benzoic acid] | < 100
C=C(C)[C@@H]1CC[C@]2(NC(=O)N3CCNC(=O)C3)CC[C@]3(C)[C@H](CC[C@@H]4[C@@]5(C)CC=C(c6ccc(C(=O)O)cc6)C(C)(C)[C@@H]5CC[C@]43C)[C@@H]12 [Example 57, 4-((1R,3aS,5aR,5bR,7aR,11aS,11bR,13aR,13bR)-5a,5b,8,8,11a-pentamethyl-3a-(3-oxopiperazine-1-carboxamido)-1-(prop-1-en-2-yl)-2,3,3a,4,5,5a,5b,6,7,7a,8,11,11a,11b,12,13,13a,13b-octadecahydro-1H-cyclopenta[a]chrysen-9-yl)benzoic acid] | < 100
C=C(C)[C@@H]1CC[C@]2(NC(=O)N(CCN)CC(=O)O)CC[C@]3(C)[C@H](CC[C@@H]4[C@@]5(C)CC=C(c6ccc(C(=O)O)cc6)C(C)(C)[C@@H]5CC[C@]43C)[C@@H]12 [Example 58, 4-((1R,3aS,5aR,5bR,7aR,11aS,11bR,13aR,13bR)-3a-(3-(2-aminoethyl)-3-(carboxymethyl)ureido)-5a,5b,8,8,11a-pentamethyl-1-(prop-1-en-2-yl)-2,3,3a,4,5,5a,5b,6,7,7a,8,11,11a,11b,12,13,13a,13b-octadecahydro-1H-cyclopenta[a]chrysen-9-yl)benzoic acid] | < 100
C=C(C)[C@@H]1CC[C@]2(NC(=O)N3CCN(C(=O)OC(C)(C)C)CC3CC(=O)O)CC[C@]3(C)[C@H](CC[C@@H]4[C@@]5(C)CC=C(c6ccc(C(=O)O)cc6)C(C)(C)[C@@H]5CC[C@]43C)[C@@H]12 (stereo partly drawn) [Example 59, 4-((1R,3aS,5aR,5bR,7aR,11aS,11bR,13aR,13bR)-3a-(4-(tert-butoxycarbonyl)-2-(carboxymethyl)piperazine-1-carboxamido)-5a,5b,8,8,11a-pentamethyl-1-(prop-1-en-2-yl)-2,3,3a,4,5,5a,5b,6,7,7a,8,11,11a,11b,12,13,13a,13b-octadecahydro-1H-cyclopenta[a]chrysen-9-yl)benzoic acid] | < 100
C=C(C)[C@@H]1CC[C@]2(NC(=O)NCCCCCN(C)C)CC[C@]3(C)[C@H](CC[C@@H]4[C@@]5(C)CC=C(c6ccc(C(=O)O)cc6)C(C)(C)[C@@H]5CC[C@]43C)[C@@H]12 [Example 60, 4-((1R,3aS,5aR,5bR,7aR,11aS,11bR,13aR,13bR)-3a-(3-(5-(dimethylamino)pentyl)ureido)-5a,5b,8,8,11a-pentamethyl-1-(prop-1-en-2-yl)-2,3,3a,4,5,5a,5b,6,7,7a,8,11,11a,11b,12,13,13a,13b-octadecahydro-1H-cyclopenta[a]chrysen-9-yl)benzoic acid] | < 100
